“Also recorded” adds a separate entry of the source.
What was measured:
[1] = system: distamycin binding sites on end-labeled DNA fragment; experiment: Footprinting of distamycin
[2] = system: EcoRI site on end-labeled DNA fragment; experiment: Footprinting of EcoRI; type: binding; conditions: in words
[3] = system: distamycin binding sites on end-labeled DNA fragment; conditions: cited from earlier work
CT DNA = experiment: Luminescence in presence of CT DNA; type: binding, calf
Protocol: While a linear relationship of the luminescence is observed for Ru(bpy)2 (dppz)^2+ in iso-propanol as a function of temperature this is not the behavior seen when the complex is bound to DNA. When the complex, Ru(bpy)2 (dppz)^2+ is bound to cal-thymus (CT) DNA (100 μM) under low salt conditions at 25 ° C. a biexponential lifetime is observed. A short component which is assigned to a surface interaction, and a long component which is assigned to an intercalated species. As is shown in Table 1, the short component remains relatively unchanged until 70 ° C. when there is an abrupt decrease in the lifetime to 45 ns at 85° C. […] Under these conditions the CT DNA melts and the observed lifetimes of the complexes are similar to those lifetimes measured with single stranded DNA. […] In fact there is an abrupt decrease in the quantum yield at the melting temperature at this salt concentration. This decrease in quantum yield may be explained thus: when the complex is bound to the double stranded form the quenching ability of H2 O is inhibited while at the melting temperature the single stranded form of DNA cannot protect the complex from quenching of H2 O and therefore the observed luminescence is not as intense.

[4] = system: poly d(GC).d(GC) B-form DNA; experiment: Luminescence with poly d(GC).d(GC), B-form; type: binding
Protocol: (§1) FIG. 21A to 21C: Luminescent Enhancement of Ru(bpy)2 (dppz)^2+ with B and Z-form DNA a. Ru(bpy)2 (dppz)^2+ 10 μM in buffer R=50.0 mM NaCl, 5.0 mM Tris-OH, pH=7.0. b. Ru(bpy)2 (dppz)2 10 μM in buffer R, with poly d(GC) d(GC) 100 μM under conditions providing B-form DNA. c. Ru(bpy)2 (dppz)^2+ 10 μM in buffer R-L=20.0 mM NaCl, 2.0 mM Tris-OH, pH 7.0, Co(NH3)6^3+ 4μM., with poly d(GC) d(GC) 100 μM under conditions providing Z-form DNA. All λex =482 nm.
As expected, preparations of Ru(bpy)2(dppz)^2+ (10 μM) in buffer R(^9) and buffer R-L(^10) (pH=7.0) produced species that were nonluminescent solutions (FIG. 21a) (λirr =482 nm).

[5] = system: poly d(GC).d(GC) Z-form DNA; experiment: Luminescence with poly d(GC).d(GC), Z-form; type: binding
Protocol: as §1
Preparations of Ru(bpy)2 (dppz)^2+ (10 μM) in buffer R^(40) and buffer R-L^(41) (pH 7.0) produced species that were nonluminescent solutions (FIG. 21a) (λirr =482 nm). […] Luminescent behavior such as this can be attributed to a highly intercalated species. This must be due to the complex being bound to the Z-form and not due to lower salt conditions (or added Co(NH3)6^3+) as the under the same Z-form producing conditions, calf thymus DNA produces the expected B-form luminescence.
An interesting twist to the luminescent properties of Ru(bpy)2 (dppz)^2+ is observed when this complex is bound to the left handed helix Z-form DNA. […] Luminescent behavior such as this can be attributed to a highly intercalated species. This must be due to the complex being bound to the Z-from nand not due to lower salt conditions (or added Co(NH3)6^3+) as the under the same Z-form producing conditions, calf thymus DNA produces the expected B-from luminescence.

poly d(AT).d(AT) = experiment: Luminescence with poly d(AT).d(AT); type: binding; conditions: Buffer (50.0 mM NaCl), 25
poly r(AU).r(AU) = experiment: Luminescence with poly r(AU).r(AU); type: binding
Excerpt: It appears then that luminescence is observed only when the ruthenium complex is intercalated in (or perhaps otherwise protected by) the nucleic acid structure. […] The relative luminescence of ruthenium complexes in the presence of various helical DNA's under varying conditions is shown in Table 16.

B-form DNA = experiment: Steady state luminescence polarization with B-form DNA; type: binding; conditions: 100 μM DNA
Protocol: (§2) FIG. 22 Steady State Polarization of Ru(bpy)2 (dppz)^2+ with B and Z-form DNA Under the conditions that provide B-form (lower curve) DNA the highest measured polarization is 0.15 with a limiting polarization 0.10. Under the conditions that provide Z-DNA (upper curve) the highest polarization is 0.35 with a limiting polarization of 0.14. Ru(bpy)2 (dppz)^2+ 10 μM, poly d(GC) d(GC) 100 μM, λex =482 nm.
To further test the extent of intercalation of this complex a study of the steady state luminescence polarization of the complex bound to each form of DNA was made. These experiments give information on how rigidly the complex is held by the DNA. […] This reflects a situation where the complex is completely bound to the right-handed helix. As the concentration of Ru(bpy)2 (dppz)^2+ increases, the polarization decreases to limiting value (0.10) at a complex:base pair ratio of 1:10.
To further test the extent of intercalation of this complex we studied the steady state luminescence polarization of the complex bound to each form of DNA. These experiments give information on how rigidly the complex is held by the DNA. […] This reflects a situation where the complex is completely bound to the right-handed helix. As the concentration of Ru(bpy)2 (dppz)^2+ increases, the polarization decreases to a limiting value (0.10) at a complex: base pair rtio of 1:10.

Z-form DNA = experiment: Steady state luminescence polarization with Z-form DNA; type: binding
Protocol: as §2
Similarly, when 1 μM Ru(bpy)2 (dppz)^2+ is titrated into poly d(GC).d(GC) (100 μM) in the Z-form, luminescence polarization is also observed, but in this case the value is 0.35, over double the value found with the analogous solution with B-form. […] As more complex is added the observed polarization reduces to a limiting value of 0.14, still higher than the analogous sample with B-form, thus further confirming the Z-form is a more rigid structure than the B-form.

[6] = system: electrophoresed DNA in agarose gel; experiment: Staining of DNA in agarose gels; conditions: in words
Excerpt: One interesting application is the binding of this complex to DNA that has been electrophoresed in a agarose gel.

DNA = experiment: Luminescence in presence of DNA (preliminary); type: binding; conditions: in words
Excerpt: Ru(phen)2 (dppz)^2+, and Ru(dip)2 (dppz)^2+ seem have similar behavior as described above. […] We are presently tethering this complexes, Ru(bpy)2 (dppz)^2+, Ru(dppz)2 phen^2+, and Ru(phen)2 (dppz)^2+ to oligonucleotides to develop non-radioactive luminescent DNA probes for both heterogeneous and homogeneous assay systems. The probes, constructed in this way should luminesce only upon finding its target sequence.

calf thymus DNA = experiment: Equilibrium dialysis of racemic complexes against calf thymus DNA (Scatchard, dialysate CD); type: binding; conditions: in words
Protocol: Equilibrium Dialysis: Equlibrium dialysis of the reacemic metal complexes was perforemd against calf-thymus DNA using procedures described previously. (74) The buffer used was 5 mM Tris, 50 mM NaCl at pH 7.5. Samples were agitated on a shaker bath during equilibration which occurred after three to five days, as determined by control samples containing no DNA. After equilibration, volumes of liquid inside and outside the dialysis bags were determined (approximately 1 and 3 mls, respectively) and circular dichroism of the dialysate was meaxured on a Jasco J-40 spectropolarimeter. Final ruthenium concentration inside and outside the bags were measured by visible absorbance. Data anaylsis was performed on a VAX-780 using non-linear least squares analysis.
Equilibrium Dialysis: Equilibrium binding constants for the metal complexes with DNA may be determined classically by equilibrium dialysis. Calf thymus DNA was dialyzed against the series of mixed ligand complexes using a broad range of ruthenium concentrations. […] The results have been plotted according to Scatchard (88), where r is the ratio of bound metal to DNA-phosphate concentration, and cf is the concentration of free metal complex. The data were fit by non-linear least squares analysis to the McGhee and von Hippel equation (8945) governing random non-cooperative binding to a lattice,
where r is the ratio of bound concentration of ruthenium to the concentration of DNA-phosphate, cf is the concentration of ruthenium free in soltuion, Kb the intrinsic binding constant, and the integer /, which measures the degree of anti-cooperativeity, is the size of a binding site in base pairs. The curves shown reflect the best fit after variation of two parameters: the intrinsic binding constant, Kb, and binding stie size, /. For those complexes were cooperatively was observed, the equation (89) incorporating a cooperativity parameter was used.
Equilibrium dialysis experiments additionally offer the opportunity to examine any enantiomeric selectivities associated with binding. After dialysis of the DNA against the racemic mixture, optical activity observed in the dialysate refelects an enrichment in the dialysate in the less favored enantiomer. For most of the complexes, optical activity was found in the dialysate. Values for the extent of enantiomeric selectivity could not be quanitated in the absence of determinations of DE and assignments of absolute configuration. Assuming that the signs of the circular chroism in the ultraviolet ligand bands are the same for the these ligands as that for the parent phenanthroline complex, (90) we have assigned the absolute configuration of these complexes by comparison to spectra for enantiomers of Ru(phen)3^2+ and have compared levels of enantioselectivity qualitatively through measurements of circular dichroic intensity per rutheium bound. Based upon these assumptions, we find enantionmeric selectivities for the polyridyl complexes to reflect an enrichment in the isomer in the dialysate and the preferential binding of the isomer to the right-handed DNA. This observation is consistent with the preferential intercalation of isomers found earlier for Ru(phen)3^2+ in right-handed B-DNA. (63) We may also compare relative enantioselectivities for different ancillary ligands. […] The same comparison may be seen qualitatively between Ru(phen)2 DIP^2+ and Ru(bpy)2 DIP^2+.

Stability / handling = type: physicochemical; conditions: in words
pBR322 DNA = conditions: reference intercalator; cited from earlier work
[7] = system: EcoRI site on end-labeled DNA fragment; conditions: cited from earlier work
[8] = 10 μM complex, 100 μM DNA, buffer R-L

Molecule: [Cu+].c1cnc2c(c1)ccc1cccnc12.c1cnc2c(c1)ccc1cccnc12 [Cu(phen)2 +]
- footprint quality, distamycin ([1]; in words): lacks the necessary sequence neutrality
- footprint quality, EcoRI [2]: failed to footprint the protein
- 3'-shift of distamycin footprint ([3]; comparison reagents): 2-3 pair

Molecule: [Ru+2].c1ccc(-c2ccccn2)nc1.c1ccc(-c2ccccn2)nc1.c1ccc2nc3c4cccnc4c4ncccc4c3nc2c1 [Ru(bpy)2 (dppz)^2+]
- Rel. Lumi. (CT DNA; Buffer (50.0 mM NaCl), 25): 0.55
- Rel. Lumi. (CT DNA; Buffer (50.0 mM NaCl), 75): 0.53
- Rel. Lumi. (CT DNA; Buffer** (0.5 mM NaCl), 25): 0.61
- Rel. Lumi. (CT DNA; Buffer** (0.5 mM NaCl), 35): 0.06
- Rel. Lumi. (CT DNA; Buffer** (0.5 mM NaCl), 45): 0.59
- Rel. Lumi. (CT DNA; Buffer** (0.5 mM NaCl), 55): 0.55
- Rel. Lumi. (CT DNA; Buffer** (0.5 mM NaCl), 70): 0.47
- Rel. Lumi. (CT DNA; Buffer** (0.5 mM NaCl), 90): 0.23
- luminescence with B-form DNA ([4]; 10 μM complex, 100 μM DNA): highly luminescent
- luminescence λmax with B-form DNA ([4]; 10 μM complex, 100 μM DNA): 628 nm
- Rel. Lumi. ([4]; Buffer (50.0 mM NaCl), poly d(GC).d(GC), 25): 0.72
- luminescence with Z-form DNA [5, 8]: highly luminescent
- luminescence λmax with Z-form DNA [5, 8]: 640 nm
- effect on Z to B transition ([5]; circular dichroism, over hours): does not cause the Z to B transition
- Rel. Lumi. (poly d(AT).d(AT)): 0.68
- luminescence with poly r(AU).r(AU) (poly r(AU).r(AU); 10 μM complex, 100 μM RNA, buffer R): no luminescence
- Rel. Lumi. (poly r(AU).r(AU); Buffer (50.0 mM NaCl), 25): 0.01
- highest luminescence polarization, B-form (B-form DNA; 1 μM probe): 0.15
- limiting luminescence polarization, B-form (B-form DNA): 0.10
- highest luminescence polarization, Z-form (Z-form DNA; 1 μM complex, 100 μM DNA): 0.35
- limiting luminescence polarization, Z-form (Z-form DNA; 100 μM DNA): 0.14
- relative strength of binding, Z-form vs B-form (Z-form DNA; in words): binds better to the Z-form; also recorded: held more rigidly by Z-form than by the analogous B-form
- staining of DNA in agarose gels [6]: no background luminescence from the complex bound to agarose

Molecule: [Ru+2].c1ccc(-c2ccnc3c2ccc2c(-c4ccccc4)ccnc23)cc1.c1ccc(-c2ccnc3c2ccc2c(-c4ccccc4)ccnc23)cc1.c1ccc2nc3c4cccnc4c4ncccc4c3nc2c1 [Ru(dip)2 (dppz)^2+]
- luminescence dependence on DNA (DNA): luminesce only in the presence of DNA but not in the presence of H2 O (or Buffer) alone

Molecule: [Ru+2].c1ccc2nc3c4cccnc4c4ncccc4c3nc2c1.c1cnc2c(c1)ccc1cccnc12.c1cnc2c(c1)ccc1cccnc12 [Ru(phen)2 (dppz)^2+]
- luminescence dependence on DNA (DNA): luminesce only in the presence of DNA but not in the presence of H2 O (or Buffer) alone

Molecule: N=C1C(=N)c2ccccc2-c2ccccc21.N=C1C(=N)c2ccccc2-c2ccccc21.N=C1C(=N)c2ccccc2-c2ccccc21.[Ru+2] [Ru(phi)3^2+]
- aggregation in solution (calf thymus DNA): extensive aggregation
- stability (Stability / handling): does not decompose upon exposure to air or by continuous irradiation with visible light

Molecule: Cn1cc(NC(=O)c2cc(NC(=O)c3cc(NC=O)cn3C)cn2C)cc1C(=O)NCCC(=N)N [distamycin]
- distamycin binding sites footprinted ([1]; by Rh(phi)2 (bpy)^3+, 5'-end-labeled fragment): strong A6 binding site (41-47 bp); also recorded: AATT (67-70, 119-12), TAAT (73-76), AAATT (101-105), and TTAT (107-110)
- binding site size by crystal structure ([3]; cited crystallography): six

Molecule: CC[n+]1c(-c2ccccc2)c2cc(N)ccc2c2ccc(N)cc21 [ethidium, reference compound]
- staining of DNA in agarose gels [6]: found to stain DNA imbedded in the agarose gels
- Unwinding Angle (pBR322 DNA): 26 °

Molecule: EcoRI: restriction endonuclease EcoRI
- crystal binding site size ([7]; cited crystallography): ten
- DNA contact length of EcoRI ([7]; x-ray co-crystal): 10 base pairs
